Turning to `CNCCc1cccc(N2C(=O)N(c3c(Cl)cccc3Cl)Cc3cnc(Nc4ccccc4)nc32)c1`, the melting point is 122 to 125 °C.

As for `COc1cccc(NC(=O)NCC(=O)N(CC(=O)OC(C)(C)C)c2ccccc2C(=O)c2ccccc2)c1`, the melting point was 153 to 155 °C.

In the case of `CC(CCc1ccc(F)cc1)(Cn1ccnc1)Sc1cccc(Cl)c1Cl` (stereo unspecified), the melting point lay in the range of 131 to 132 °C.

Take `CN(C)C=CC(=O)c1ccc(OCC(O)CN2CCN(c3cccc(Cl)c3)CC2)cc1` (stereo unspecified): the melting point is 130 to 133 °C.

On to `NP(N)(=O)c1ccccc1`, for which the melting point is 187 to 191 °C.

`CC1CN(c2ccc(N)cc2)CC(C)N1` (stereo unspecified) yielded a melting point of 124 to 125 °C.

`COC(OC)C1CN=C(c2cc3sc(C)c(N(C)S(=O)(=O)c4cccs4)c3[nH]2)S1` (stereo unspecified) displayed a melting point of 185 °C.

In turn, `O=C(O)C1=Cc2cc(Cl)ccc2OC1C(F)(F)F` (stereo unspecified) displayed a melting point of 181 to 184 °C.

For `CN(c1ccc(Cl)cc1)S(=O)(=O)c1cccc(C(=O)Nc2ccc(Br)cc2F)c1`, the melting point fell in the range of 126 to 127 °C.

Molecule `Cc1noc(CN2CCC[C@@H](OCc3cc(C(F)(F)F)cc(C(F)(F)F)c3)[C@H]2c2ccccc2)n1` (relative stereo) showed a melting point of 85 to 86 °C.

Regarding `Cc1ccccc1CNC(=O)c1ccc2n1Cc1ccccc1N(C(=O)c1ccc(-c3ccccc3C)c(C)c1)C2`, the melting point was in the range of 128 to 130 °C.

`COc1ccc(C2(C#N)CCC(=CC(=O)O)CC2)c2c1OCCO2` (stereo unspecified) showed a melting point of 203 to 204 °C.

For the molecule `CC(=O)N1CCCSC1=C[N+](=O)[O-]`, the melting point is 91 to 92.5 °C.

`CC1=C(c2ccc(C(=O)N3Cc4cccn4Cc4ccccc43)cc2)CCCC1=O` came in with a melting point of 95 to 97 °C.

The molecule `CCc1nccn1CCCNC(=O)c1ccc(Cl)cc1` showed a melting point of 120 to 122 °C.

The molecule `FC(F)(F)c1cc(C(F)(F)F)n2nc(SCc3ccccc3)nc2n1` displayed a melting point of 78.5 to 80.5 °C.

In the case of `CCOC(=O)C(=O)Cc1ncc([N+](=O)[O-])n1C`, the melting point amounted to 141 °C.

`COC(=O)C(c1ccccc1)c1cn[nH]c1` (racemic) gave a melting point of 100 to 103 °C.

`CC(C)(C)NC(=O)[C@@H]1C[C@H](Cl)CN1C(=O)[C@@H](O)[C@H](Cc1ccccc1)NC(=O)[C@H](CC(N)=O)NC(=O)c1cnc2cc([N+](=O)[O-])ccc2n1` gave a melting point of 153 to 156 °C.

On to `CN1C=C(S(=O)(=O)C(F)(F)F)C(Cl)(c2ccc(Cl)cc2)C1` (stereo unspecified), for which the melting point was 117 to 119 °C.

With `Cc1ccc(F)c2c1N(CC(=O)Nc1ccccc1F)C(=O)C21COc2cc3c(cc21)CCO3` (stereo unspecified), the melting point lay in the range of 250 to 255 °C.

Molecule `CCCc1cc(NCc2ccc3c(c2)OCO3)nc(SCC#N)n1` gave a melting point of 92 to 94 °C.

Turning to `N#Cc1cc(-n2cccc2)cnc1Cl`, the melting point is 144 to 146 °C.

Molecule `Nc1cccc(Oc2cccc(Oc3cccc(N)c3)c2)c1` had a melting point of 105 to 107 °C.

Take `O=Cc1ccc(N(Cc2ccccc2)Cc2ccccc2)cc1[N+](=O)[O-]`: the melting point was 67 to 70 °C.

In the case of `Cc1cc(N2CCC[C@H]2COc2ccc(CC3SC(=O)NC3=O)cc2)nc2ccccc12` (stereo partly specified), the melting point lay within 95 to 97 °C.

Molecule `CCC(O)=C1SC(=S)N(c2ccccc2)C1=O` registered a melting point of 105 to 111 °C.

For `Clc1ccc(Cn2cnc3ccc(Cl)nc32)c(Cl)c1`, the melting point fell in the range of 149 to 150 °C.

Molecule `Cc1cccc(-c2ccc3c(c2)c2c(n3Cc3ccc(C(C)(C)C)cc3)COC(=O)C2=O)c1` came in with a melting point of 196 to 197 °C.

`COc1cc(OC)cc(N2CCN(CCC3CN(C)C(=O)O3)CC2)c1` (stereo unspecified) gave a melting point of 85 to 87 °C.

`CC(O)c1cc(S(N)(=O)=O)sc1S(=O)(=O)c1ccc(O)cc1` (stereo unspecified) yielded a melting point of 173 to 175 °C.

Regarding `O=C(N1CCC(N2CCOCC2)CC1)C12CC(c3ccccc31)c1ccccc12`, the melting point fell in the range of 179 to 180 °C.

Consider `CCCCCCCSC[C@H](N[C@@H](C)C(=O)N1CCC[C@H]1C(=O)O)C(=O)O`, for which the melting point was 75 to 83 °C.

As for `COc1ccc(C(=O)Nc2cc(NC(=O)c3cccc(NC(C)=O)c3)ccc2C)cc1OC`, the melting point was 187 to 188 °C.

With `Cc1nc(OC(C)C)c([N+](=O)[O-])c(N2CCN(c3ccc(F)cc3)CC2)n1`, the melting point fell in the range of 98 to 100 °C.

Regarding `COc1ccc2[nH]c(C(=O)Nc3ccc(CCCN(C)Cc4ccc(OC)c(OC)c4)cc3)cc2c1`, the melting point was 80 °C.

In turn, `Cc1nc(N)nc(N)c1I` gave a melting point of 154 to 156 °C.

`COc1cc(C=C(C=O)C(C=O)=Cc2ccc(O)c(OC)c2)ccc1O` showed a melting point of 177 to 178 °C.

The molecule `c1csc(-c2nc3cc(COc4ccc(CCCCn5ccnc5)cc4)ccc3o2)c1` showed a melting point of 130 to 131 °C.

Molecule `Oc1ccc2c(c1)Cc1c-2cc2ccc(O)cc2c1C=C(F)F` showed a melting point of 211 to 212 °C.

Consider `Cc1noc(NS(=O)(=O)c2ccccc2-c2ccc(-c3ncco3)cc2CN(C(=O)C(C)C)C2CC2)c1C`, for which the melting point is 110 to 120 °C.

In turn, `COC(=O)c1cc(N)nc(-c2ccc(Cl)c(F)c2F)n1` showed a melting point of 192 to 195 °C.

As to `OC(CCl)(Cc1ccc(Cl)cc1)c1ccc2c(c1)Cc1cc(Cl)ccc1-2` (stereo unspecified), the melting point was 108 °C.

`CCN1CCNC(=O)c2ccc(Nc3ncc(Cl)c(Nc4ccccc4OCCN4CCOCC4)n3)cc21` displayed a melting point of 223 to 225 °C.

`O=S(=O)(c1ccccc1)c1c[nH]c2cccc(Br)c12` returned a melting point of 202 to 207 °C.

Regarding `Cn1cncc1C(N)(c1ccc(CN)cc1)c1ccc2c(c1)c(-c1cccc(Cl)c1)cc(=O)n2C` (stereo unspecified), the melting point was 150 °C.

`O=C(c1ccc2[nH]ccc2c1)N1CCN(CCc2ccc3nonc3c2)CC1` displayed a melting point of 180 to 183 °C.

Regarding `Nc1ccc(CS(=O)(=O)CCO)cc1CS(=O)(=O)CCO`, the melting point was in the range of 183 to 185 °C.

On to `CCCn1c(=O)c2[nH]c(-c3nn(CC(=O)Nc4ccc(Cl)cc4)c(C)c3Br)nc2n(CCC)c1=O`, for which the melting point lay in the range of 298 to 299 °C.

`Cc1c(-c2cccnc2)ccc2c(=O)c(C(=O)O)cn(C3CC3)c12` came in with a melting point of 247 °C.

In the case of `CS(=O)(=O)c1ccc(-n2cnc(Cl)c2-c2ccc(Cl)nc2)cc1`, the melting point turned out to be 223 °C.

In turn, `CC(C)(Oc1ccc(CC(=O)Nc2cc(Cl)c(Cl)c(Cl)c2)cc1)C(=O)O` showed a melting point of 160 °C.

The molecule `CS(=O)(=O)C(=C1CN(C(c2ccccc2)c2ccccc2)C1)c1ccc(F)cc1` had a melting point of 186 °C.

Molecule `O=C(O)Cc1ccc(CCNS(=O)(=O)c2ccc(Cl)cc2)s1` registered a melting point of 138 °C.

Take `CC(=O)Nc1ccc(Cl)cc1C(=O)c1ccccc1`: the melting point worked out at 114 °C.

`O=C(O)CC1(O)CCC(N2CCC(Nc3ccncc3)CC2)CC1` (stereo unspecified) returned a melting point of 261 °C.

The molecule `CON(C(=O)Nc1nc(OCC(F)(F)F)cc(OCC(F)(F)F)n1)c1ccc(Cl)cc1` gave a melting point of 275 to 276 °C.

For the molecule `Nc1cc(C2SCCCS2)c(Cl)cc1F`, the melting point was in the range of 112 to 115 °C.

On to `CC(C)(C)OC(=O)NCCC[C@@H](CO)NC(=O)OCC1c2ccccc2-c2ccccc21`, for which the melting point was in the range of 107 to 109 °C.

Consider `CC(C)N1CCN(c2ccc(-c3[nH]nc4c3C(=O)c3c(NC(=O)NN5CCOCC5)cccc3-4)cc2)CC1`, for which the melting point turned out to be 253 °C.

For the molecule `Cc1c(CO)oc2c(Br)cccc12`, the melting point stood at 103 °C.

On to `Oc1[nH]nc2c1-c1ccc(Cl)cc1CC2`, for which the melting point lay within 232 to 233 °C.

The molecule `CC(C)(C)c1cccc(S(=O)(=O)n2ccc3cc(C(F)(F)F)ccc32)c1` had a melting point of 84 to 86 °C.

`O=C(N1CC1)C(F)(F)C(O)(Cn1cncn1)c1ccc(F)cc1F` (stereo unspecified) displayed a melting point of 87.5 to 88 °C.

`C=CC[C@@H]1[C@H](O)[C@@H](O)C(=O)N1Cc1ccccc1` (relative stereo) yielded a melting point of 90 to 93 °C.

In the case of `O=c1c(-c2ccccc2)c(CNc2ncnc3[nH]cnc23)oc2ccccc12`, the melting point lay within 155 to 158 °C.

The molecule `CC(C)c1nn(-c2ccc(C(F)(F)F)cn2)cc1CCCOc1cccc(CC(=O)O)c1` yielded a melting point of 82 to 83 °C.

For the molecule `Cc1ccc(S(=O)(=O)OCCn2c(=NC(=O)C(F)(F)F)sc3cc(C(F)(F)F)ccc32)cc1`, the melting point amounted to 163 °C.

As to `O=C(Nc1nc2ccc(Sc3nnc4ccc(-c5cnn(CCOC6CCCCO6)c5)cn34)cc2s1)C1CC1` (stereo unspecified), the melting point was determined as 110 °C.

In turn, `OC1(c2ccc(Cl)cc2)CCNC1` (stereo unspecified) returned a melting point of 79 to 80 °C.

As for `OCc1ccc(Cn2c(NC3CCN(CC(O)COc4ccc(F)cc4)CC3)nc3ccccc32)o1` (stereo unspecified), the melting point worked out at 137 °C.

Consider `COC(=O)c1cc(C2(c3ccc(F)c(-c4cncnc4)c3)N=C(N)N(C)C2=O)cn1CCF` (stereo unspecified), for which the melting point lay within 88 to 90 °C.

Regarding `N#Cc1ncncc1-c1ccc(CBr)cc1`, the melting point lay within 114 to 116 °C.

The molecule `Cc1ccc(-c2cc(F)c(F)cc2-c2ccc(S(N)(=O)=O)cc2)cc1` yielded a melting point of 103 to 104 °C.

In turn, `CCC(C)(C)c1ccc(OCCCNC(=O)c2cc(N=C=S)c3ccccc3c2O)c(C(C)(C)CC)c1` returned a melting point of 91 to 94 °C.

As to `NCc1ccc(Br)nc1`, the melting point is 57 to 58 °C.

The molecule `CCCCCc1ccc(-c2ncc(-c3ccc(O)cc3)cn2)cc1` yielded a melting point of 152 to 153 °C.

`C#CCn1cc(CO)cc1C(=O)OC`: the melting point is 77 °C.

Regarding `CCCCc1nnc(SCc2ccc(OC)cc2)n1Cc1ccc(O)cc1`, the melting point is 130 to 131 °C.

`CCOC(=O)c1nnc2ccc(NC(C)=O)cc2c1O` had a melting point of 280 to 281 °C.

The molecule `O=C(c1ccc(Cl)cc1)N1CCc2cc(S(=O)(=O)n3cc(-c4ccccc4)[nH]c3=O)ccc21` gave a melting point of 220 to 221 °C.

As for `COc1cc2ncc(C#N)c(Nc3cccc(C#N)c3)c2cc1OC`, the melting point was in the range of 285 to 288 °C.

As for `O=C1Cc2cc(F)ccc2C(c2ccc(Cl)cc2)N1` (stereo unspecified), the melting point is 160 to 161 °C.

With `Cc1ccc(-c2c(Cl)ncn2-c2ccc(S(C)(=O)=O)cc2)cc1`, the melting point was 182 °C.

Molecule `Cc1c(SCc2ccco2)ccnc1CO` gave a melting point of 60 to 62 °C.

With `Clc1ccc2nncc(Cl)c2c1`, the melting point lay in the range of 111 to 113 °C.

The melting point is the temperature of the solid-liquid transition.

Values taken from a melting point compilation (Tetko et al.; mined from patent text by program, amines drawn as free bases though some values may be those of a salt).
